The subject of experiment [1] is HIV-1 containing 4xAZT (D67N/K70R/T215Y/K219Q). Nature of the experiment: microbe, parasite or virus in culture. The class given is cell-based.
A further experiment relates to HIV-1LAI. Nature of the experiment: microbe, parasite or virus in culture. As to conditions: Human immunodeficiency virus 1, PBMC, in Homo sapiens. The text has this: PBM cells were isolated as follows: Lymphocytes were isolated from buffy coats derived from healthy donors obtained from Life South Laboratories (Dunwoody, Ga.). Activated lymphocytes were maintained for 72 hrs in medium that was supplemented with […] phytohemagglutinin (PHA) (Cape Cod associates, East Falmouth, Mass.). Media was comprised of RPMI media supplemented with 20% fetal calf serum, 1% penicillin/streptomyocin and 2% L-glutamine (Sigma Aldrich, San Jose, Calif.).
PBM cell infections: Testing was performed in duplicate with at least 3 independent assays. Cells were incubated in RPMI medium (HyClone, Logan, Utah) containing HR-IL2 (26.5 units/ml) and 20% fetal calf serum. Infections were performed by adding HIV-1LA1 followed by a further incubation at 37° C., 5% CO2, 1 hr prior to addition of drugs. Assays were performed in 24 well plates (BD Biosciences, Franklin Lakes, N.J.). One ml of supernatant was collected after 5 days in culture and then centrifuged at 12,000 rpm for 2 hr at 4° C. in a Jouan Br43i (Thermo Electron Corp., Marietta, Ohio). The product of the RT assay was quantified using a Packard harvester and direct beta counter and the data were analyzed as previously described (Schinazi et al, 1990).

Where [2] appears, read: Human immunodeficiency virus 1, Lymphocyte.

As a reminder, the EC50 is the concentration giving half of the maximal effect. Broadly, the EC90 is the point of the concentration-response curve where the effect stands at 90%. In the case of `N#CC[C@H](C1CCCC1)n1cc(-c2ncnc3[nH]ccc23)cn1` [Jakafi, Ruxolitinib], in experiment [1] (4xAZT (D67N/K70R/T215Y/K219Q)), the “FI50 (ratio of EC50 against mutant virus:EC50 against wild-type xxLAI)” value is reported as 0.3 and the “FI90 (ratio of EC90 against mutant virus:EC90 against wild-type xxLAI)” value is 0.4. In experiment [1] (setting [2]), this compound registered an EC50 of 0.09 ± 0.1 µM and an EC90 of 2.4 ± 2 µM. In the experiment with HIV-1LAI (read-out: Anti-HIV-1 EC50 in acutely infected PBM cells), the EC50 stood at 0.1 ± 0.02 µM. In the experiment with HIV-1LAI (read-out: Anti-HIV-1 EC90 in acutely infected PBM cells), the EC90 is 4.7 ± 0.07 µM.

For the origin of these results see patent US20190134039A1, “ANTIVIRAL JAK INHIBITORS USEFUL IN TREATING OR PREVENTING RETROVIRAL AND OTHER VIRAL INFECTIONS” (EMORY UNIVERSITY, priority 2011, published 2019).
